pIC50: −log10 of the molar value.
What was measured:
[1] = system: human solid tumour xenograft NCI-H1299 (WT); experiment: Hypoxia-dependent binding by ex vivo flow cytometry with pimonidazole co-staining; format: in vivo, NIH-III nude mice; details: 60 mg/kg i.p.; tumours excised after 120 minutes, single cell suspension
Procedure: FIG. 11 illustrates the absence of hypoxic-dependent binding of compound 67 and compound 93 by flow cytometry in the human solid tumour xenograft NCI-H1299, with reference to hypoxia staining by compound 15 and pimonidazole (Hypoxyprobe™) as internal standards (positive controls). NCI-H1299 WT tumours were inoculated subcutaneously onto the flank of NIH-III nude mice. When the mixed tumours reached approximately 800 mm^3, mice were dosed i.p. with 60 mg/kg of pimonidazole, and 60 minutes later dosed with either 60 mg/kg of compound 15, or 60 mg/kg of compound 67, or 60 mg/kg of compound 93. After 120 minutes the tumours were excised and enzyme digested to form a single cell suspension before fixation in ice cold 80% ethanol. Single cell immunodetection of bound adducts of compounds was performed using a monoclonal antibody (Mab1, hybridoma clone 4.3.11.3) conjugated to Alexa-488 (Ex/Em 499/519; green) for the detection of pimonidazole adducts, and monoclonal antibody ELK3-51 directly conjugated to the fluorophore CY5 (Ex/Em 650/670 nm; red) for detection of adducts formed by compound 15 or compound 67 or compound 93. The ex-vivo tumour cell samples were analysed on a Becton Dickinson FACscan flow cytometer using FACS Diva software. Integrated fluorescence measurements were recorded for 10,000 single non-debris events. Fluorescence emission was monitored at 530 nm±20 and 670-700 nm for detection of Alexa-488 and CY5 conjugated monoclonal antibodies, respectively.

[2] = system: HCT116 wild type (WT) cancer cells; experiment: Inhibition of cell proliferation, low cell density IC50 assay; format: cell-based; details: Homo sapiens, HCT-116; 4 hour drug exposure, washing and regrowth for 5 days
Procedure: (§1) IC50 values were determined as the concentration of prodrug required to inhibit cell growth by 50% of untreated controls following 4 hour drug exposure, with washing and regrowth for 5 days. WT:NfsA ratios were determined as the WT IC50/NfsA IC50.

[3] = system: HCT116 cells overexpressing the nitroreductase NfsA from E. coli; experiment: as above; format: cell-based, human; details: for pIC50: Homo sapiens, HCT-116, 4 hour drug exposure, washing and regrowth for 5 days; for WT:NfsA: WT IC50/NfsA IC50
Procedure: as §1

[4] = system: wild-type HCT-116 cells; experiment: Flow cytometry of metabolism and binding (EF5 antibody); format: cell-based, human; details: for Metabolism and binding by FACS, wild-type HCT-116 cells (FIG. 3): 20 μM, 2 hours, oxic conditions (21% O2, 5% CO2)
Procedure: FIG. 3 illustrates the results of flow cytometry analysis of HCT-116 cells stably expressing E. coli NfsA relative to HCT-116 wild-type cells after in vitro exposure to 20 μM of compounds 15, 93 and 67 for 2 hours. 1×10^6 cells were incubated with test compounds under oxic conditions. Samples were fixed and stained with EF5 antibody Alexa 488 ELK3.51 at 100 μg/ml. Samples were then analysed on a Becton Dickinson FACscan flow cytometer.
(§2) FIG. 4 illustrates the results of a second independent flow cytometry analysis of compound 15 and 93 metabolism and binding in wild-type HCT-116 cells, HCT-116 cells stably over-expressing cytochrome P450 reductase (CYPOR), a human one-electron reductase known to metabolise nitroheterocyclic and nitroaromatic compounds, or HCT-116 cells stably expressing the bacterial nitroreductase E. coli NfsA. 1×10^6HCT-116 cells were seeded in 6 well plates underaerobic conditions (21% O2, 5% CO2). After 2 h incubation, drug free control (wild-type HCT-116, foreground), 20 μM (wild-type HCT-116, second plot), 100 μM (wild-type HCT-116, third plot), 20 μM (HCT-116-CYPOR, forth plot), 100 μM (HCT-116-CYPOR, fifth plot) or 20 μM (HCT-116-NfsA, sixth plot) of compound 15 or 93 was added. After 2 h incubation cells were harvested and fixed with paraformaldehyde before being incubated overnight with 100 μl of 75 μg/ml EF5 CY5 conjugated antibody. Samples were then analysed on a Becton Dickinson FACscan flow cytometer.
(§3) FIG. 6 illustrates the results of flow cytometry analysis of compound 15 and 93 metabolism and binding in wild-type HCT-116 cells and HCT-116 cells stably over-expressing cytochrome P450 reductase (CYPOR), a human one-electron reductase known to metabolise nitroheterocyclic and nitroaromatic compounds. 1×10^6 HCT-116 cells were seeded in 6 well plates underanoxic conditions. After 2 h incubation, drug free control (wild-type HCT-116, foreground), 20 μM (wild-type HCT-116, second plot), 100 μM (wild-type HCT-116, third plot), 20 μM (HCT-116-CYPOR, forth plot) or 100 μM (HCT-116-CYPOR, fifth plot) of compound 15 or 93 was added. After 2 h incubation cells were harvested and fixed with paraformaldehyde before being incubated overnight with 100 μl of 75 μg/ml EF5 CY5 conjugated antibody. Samples were then analysed on a Becton Dickinson FACscan flow cytometer.

[5] = system: NTR over-expressing E. coli SOS-R2; experiment: Growth Inhibition assay in 58-membered NTR over-expression library; format: cell-based, Escherichia coli; details: 4 h incubation; 400 μM compound 67, 130 μM compound 93, 800 μM compound 97
[6] = system: HCT-116 cells stably over-expressing cytochrome P450 reductase (CYPOR); experiment: Flow cytometry of metabolism and binding (EF5 antibody); format: cell-based, human; details: 2 h
Procedure: as §2
FIG. 5 illustrates the results of flow cytometry analysis of HCT-116 cells stably over-expressing cytochrome P450 reductase (CYPOR), a human one-electron reductase known to metabolise nitroheterocyclic and nitroaromatic compounds. 1×10^6HCT-116-CYPOR cells were seeded in 6 well plates in aerobic, anoxic and 0.2% oxygen conditions designed to replicate the lower limit of pathological hypoxia observed in human tumours. After 2 h incubation, drug free control (foreground), 20 μM (middle) or 100 μM (background) of compound 15 or 67 was added. After 2 h incubation cells were harvested and fixed with paraformaldehyde before being incubated overnight with 100 μl of 75 μg/ml EF5 CY5 conjugated antibody. Samples were then analysed on a Becton Dickinson FAC scan flow cytometer.
as §3

| SMILES | Hypoxia-dependent binding in NCI-H1299 WT tumours, flow cytometry (FIG. 11) [1] | pIC50 [2] | pIC50 [3] | WT:NfsA [3] | Metabolism and binding by FACS, wild-type HCT-116 cells (FIG. 4) ([4]; 20 μM and 100 μM, 2 h, aerobic conditions) | Metabolism and binding by FACS, wild-type HCT-116 cells, anoxia (FIG. 6) ([4]; 20 μM and 100 μM, 2 h, anoxic conditions) | Metabolism and binding by FACS, wild-type HCT-116 cells (FIG. 3) [4] | Reductive metabolism at the nitro moiety by NTR library members (NfsA and NfsB families) [5] | Metabolism and binding by FACS, HCT-116-CYPOR cells (FIG. 4) ([6]; 20 μM and 100 μM, aerobic conditions) | Metabolism and binding by FACS, HCT-116-CYPOR cells, anoxia (FIG. 6) ([6]; 20 μM and 100 μM, anoxic conditions) | Metabolism and binding by FACS, HCT-116-CYPOR cells, 0.2% oxygen (FIG. 5) ([6]; 20 μM or 100 μM, 0.2% oxygen) | Metabolism and binding by FACS, HCT-116-CYPOR cells, aerobic (FIG. 5) ([6]; 20 μM or 100 μM, aerobic) |
| --- | --- | --- | --- | --- | --- | --- | --- | --- | --- | --- | --- | --- |
| O=C(Cn1cnc([N+](=O)[O-])c1)NCC(F)(F)C(F)(F)F [Compound 93, 2-(4-nitro-1H-imidazol-1-yl)-N-(2,2,3,3,3-pentafluoropropyl)acetamide] | unable to bind to and thus detect pimonidazole-positive (hypoxic) tumour cells | 2.84 | 4.84 | 100 | minimal metabolism and binding | negligible metabolism and binding | minimal metabolism and binding | selectively reductively metabolised at the nitro moiety by the NfsA family | minimal metabolism and binding | negligible metabolism and binding |  |  |
| Cc1ncc([N+](=O)[O-])n1CC(=O)NCC(F)(F)C(F)(F)F [Compound 67, 2-(2-methyl-5-nitro-1H-imidazol-1-yl)-N-(2,2,3,3,3-pentafluoropropyl)acetamide] | unable to bind to and thus detect pimonidazole-positive (hypoxic) tumour cells | 2.20 | 4.72 | 332 |  |  | minimal metabolism and binding | readily reductively metabolised at the nitro moiety by the majority of NfsA family members along with a subset of the NfsB family |  |  | negligible metabolism and binding | negligible metabolism and binding |

— patent US20150010474A1, “Compounds And Methods For Selective Imaging And/Or Ablation” (Auckland Uniservices Limited, priority 2011, published 2015)
